One may read the IC50 as the concentration at which inhibition is half-maximal. A low value points to greater potency in that assay.

This is an account of results in patent US9012489B2, “Phenyl-3-aza-bicyclo[3.1.0]hex-3-yl-methanones and the use thereof as medicament” (Boehringer Ingelheim International GmbH, priority 2011, dated 2015).

Molecules are shown by their SMILES.

For this assay, the target named is T1, GlyT1 transporter (Homo sapiens, UniProt P48067).
T1 construct: endogenously expressing the GlyT1 transporter; host or cells: SK-N-MC human neuroblastoma cells
T1 sequence (P48067 1-706): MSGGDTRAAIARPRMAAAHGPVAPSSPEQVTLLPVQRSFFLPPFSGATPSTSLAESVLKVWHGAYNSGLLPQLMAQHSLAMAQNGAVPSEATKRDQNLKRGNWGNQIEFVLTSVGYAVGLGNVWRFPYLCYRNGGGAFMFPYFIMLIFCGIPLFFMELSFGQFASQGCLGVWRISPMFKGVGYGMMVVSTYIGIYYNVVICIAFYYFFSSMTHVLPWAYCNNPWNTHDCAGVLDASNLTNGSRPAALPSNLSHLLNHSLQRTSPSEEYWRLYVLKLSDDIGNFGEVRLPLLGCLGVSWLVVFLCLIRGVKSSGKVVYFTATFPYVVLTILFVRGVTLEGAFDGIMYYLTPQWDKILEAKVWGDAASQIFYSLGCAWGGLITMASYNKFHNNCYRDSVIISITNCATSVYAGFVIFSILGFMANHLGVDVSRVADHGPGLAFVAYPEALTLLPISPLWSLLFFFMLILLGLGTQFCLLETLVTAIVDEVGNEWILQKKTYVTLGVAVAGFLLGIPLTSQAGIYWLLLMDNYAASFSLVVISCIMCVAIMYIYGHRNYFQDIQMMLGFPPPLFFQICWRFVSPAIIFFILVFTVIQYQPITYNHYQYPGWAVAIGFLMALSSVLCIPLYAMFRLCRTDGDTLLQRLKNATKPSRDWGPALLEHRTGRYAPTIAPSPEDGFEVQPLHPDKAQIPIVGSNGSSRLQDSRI
Nature of the assay: GlyT1 assay: 3H-glycine uptake into SK-N-MC cells (Cytostar-T format). It is filed as cell-based. Conditions: glycine uptake in human SK-N-MC cells endogenously expressing GlyT1; 500 nM glycine, 1% DMSO, signal recorded over 60 min. In a few lines: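 Uptake slopes, measured over 60 min from the linear kinetic range, give IC50 from 8 compound concentrations, with 10 μM RG-1678 setting background. Substrate is 500 nM glycine (250 nM ³H, 250 nM unlabelled) in HBSS/5 mM alanine, 1% DMSO, after roughly 5-10 min compound preincubation. Cells: confluent SK-N-MC endogenously expressing human GlyT1.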
For `CC(C)Oc1ccc(S(C)(=O)=O)cc1C(=O)N1CC2CC2(c2noc(C3(C(F)(F)F)CC3)n2)C1` (single isomer, unassigned) [Example 142, (2-Isopropoxy-5-methanesulfonyl-phenyl)-{1-[5-(1-trifluoromethyl-cyclopropyl)-[1,2,4]oxadiazol-3-yl]-3-aza-bicyclo[3.1.0]hex-3-yl}-methanone], the concentration for half-maximal inhibition (IC50) stood at 0.003 µM. Consider `Cc1c(C23CC2CN(C(=O)c2cc(S(C)(=O)=O)ccc2O[C@@H](C)C(F)(F)F)C3)noc1C(F)(F)F` (single isomer, unassigned) [Example 165], for which the midpoint of inhibition, the IC50, lay at 0.394 µM. Next, `COC1(c2nc(C34CC3CN(C(=O)c3cc(S(C)(=O)=O)ccc3O[C@H](C)C(F)(F)F)C4)no2)CC1` (mixture of isomers) [Example 119, [5-Methanesulfonyl-2-(2,2,2-trifluoro-1-methyl-ethoxy)-phenyl]-{1-[5-(1-methoxy-cyclopropyl)-[1,2,4]oxadiazol-3-yl]-3-aza-bicyclo[3.1.0]hex-3-yl}-methanone]: 0.011 µM; `C[C@H](Oc1ccc(S(C)(=O)=O)cc1C(=O)N1CC2CC2(c2noc(CC(F)(F)F)n2)C1)C(F)(F)F` (mixture of isomers) [Example 61, [5-Methanesulfonyl-2-(2,2,2-trifluoro-1-methyl-ethoxy)-phenyl]-{1-[5-(2,2,2-trifluoro-ethyl)-[1,2,4]oxadiazol-3-yl]-3-aza-bicyclo[3.1.0]hex-3-yl}-methanone]: 0.008 µM; `C[C@@H](Oc1ccc(S(C)(=O)=O)cc1C(=O)N1CC2CC2(c2nc(C3CC3)no2)C1)C(F)(F)F` (mixture of isomers) [Example 145, [1-(3-Cyclopropyl-[1,2,4]oxadiazol-5-yl)-3-aza-bicyclo[3.1.0]hex-3-yl]-[5-methanesulfonyl-2-(2,2,2-trifluoro-1-methyl-ethoxy)-phenyl]-methanone]: 0.007 µM. The same measure for `C[C@H](Oc1ccc(S(C)(=O)=O)cc1C(=O)N1CC2CC2(c2noc(C(F)(F)F)n2)C1)C(F)(F)F` (single isomer, unassigned) [Example 3, [5-Methanesulfonyl-2-(2,2,2-trifluoro-1-methyl-ethoxy)-phenyl]-[1-(5-trifluoromethyl-[1,2,4]oxadiazol-3-yl)-3-aza-bicyclo[3.1.0]hex-3-yl]-methanone]: 1.02 µM; for `CCS(=O)(=O)c1ccc(O[C@H](C)C(F)(F)F)c(C(=O)N2CC3CC3(c3noc(C(F)(F)F)n3)C2)c1` (single isomer, unassigned) [Example 93, [5-Ethanesulfonyl-2-(2,2,2-trifluoro-1-methyl-ethoxy)-phenyl]-[1-(5-trifluoromethyl-[1,2,4]oxadiazol-3-yl)-3-aza-bicyclo[3.1.0]hex-3-yl]-methanone]: 0.011 µM. The same measure for `C[C@@H](Oc1ccc(S(C)(=O)=O)cc1C(=O)N1CC2CC2(c2nc(C(F)(F)F)no2)C1)C(F)(F)F` (mixture of isomers) [Example 37, [5-Methanesulfonyl-2-(2,2,2-trifluoro-1-methyl-ethoxy)-phenyl]-[1-(3-trifluoromethyl-[1,2,4]oxadiazol-5-yl)-3-aza-bicyclo[3.1.0]hex-3-yl]-methanone]: 0.034 µM. `C[C@@H](Oc1ccc(S(C)(=O)=O)cc1C(=O)N1CC2CC2(c2cc(C(F)(F)F)on2)C1)C(F)(F)F` (single isomer, unassigned) [Example 50, [5-Methanesulfonyl-2-(2,2,2-trifluoro-1-methyl-ethoxy)-phenyl]-[1-(5-trifluoromethyl-isoxazol-3-yl)-3-aza-bicyclo[3.1.0]hex-3-yl]-methanone] registered a half-inhibitory concentration (IC50) of 0.006 µM. As for `Cc1nc(C23CC2CN(C(=O)c2cc(S(C)(=O)=O)ccc2O[C@@H](C)C(F)(F)F)C3)no1` (mixture of isomers) [Example 6, [5-Methanesulfonyl-2-(2,2,2-trifluoro-1-methyl-ethoxy)-phenyl]-[1-(5-methyl-[1,2,4]oxadiazol-3-yl)-3-aza-bicyclo[3.1.0]hex-3-yl]-methanone], the IC50 came out at 0.0165 µM. `C[C@H](Oc1ccc(S(C)(=O)=O)cc1C(=O)N1CC2CC2(c2nnc(C3(C(F)(F)F)CC3)o2)C1)C(F)(F)F` (single isomer, unassigned) [Example 152, [5-Methanesulfonyl-2-(2,2,2-trifluoro-1-methyl-ethoxy)-phenyl]-{1-[5-(1-trifluoromethyl-cyclopropyl)-[1,3,4]oxadiazol-2-yl]-3-aza-bicyclo[3.1.0]hex-3-yl}-methanone] yielded an IC50 of 0.01 µM. Next, `C[C@@H](Oc1ccc(S(C)(=O)=O)cc1C(=O)N1CC2CC2(c2cc(C(F)(F)F)on2)C1)C(F)(F)F` (single isomer, unassigned) [Example 51, [5-Methanesulfonyl-2-(2,2,2-trifluoro-1-methyl-ethoxy)-phenyl]-[1-(5-trifluoromethyl-isoxazol-3-yl)-3-aza-bicyclo[3.1.0]hex-3-yl]-methanone]: 0.461 µM. Next, `CC(C)Oc1ccc(S(C)(=O)=O)cc1C(=O)N1CC2CC2(c2noc(C(F)(F)F)n2)C1` (single isomer, unassigned) [Example 97, (2-Isopropoxy-5-methanesulfonyl-phenyl)-[1-(5-trifluoromethyl-[1,2,4]oxadiazol-3-yl)-3-aza-bicyclo[3.1.0]hex-3-yl]-methanone]: 0.008 µM; `C[C@@H](Oc1ccc(S(C)(=O)=O)cc1C(=O)N1CC2CC2(c2nnc(C(F)(F)F)o2)C1)C(F)(F)F` (mixture of isomers) [Example 122, [5-Methanesulfonyl-2-(2,2,2-trifluoro-1-methyl-ethoxy)-phenyl]-[1-(5-trifluoromethyl-[1,3,4]oxadiazol-2-yl)-3-aza-bicyclo[3.1.0]hex-3-yl]-methanone]: 0.021 µM; `C[C@@H](Oc1ccc(S(C)(=O)=O)cc1C(=O)N1CC2CC2(c2nc(C3(C(F)(F)F)CC3)no2)C1)C(F)(F)F` (mixture of isomers) [Example 156, [5-Methanesulfonyl-2-(2,2,2-trifluoro-1-methyl-ethoxy)-phenyl]-{1-[3-(1-trifluoromethyl-cyclopropyl)-[1,2,4]oxadiazol-5-yl]-3-aza-bicyclo[3.1.0]hex-3-yl}-methanone]: 0.011 µM. Next, `Cc1nnc(C23CC2CN(C(=O)c2cc(S(C)(=O)=O)ccc2O[C@@H](C)C(F)(F)F)C3)o1` (mixture of isomers) [Example 38, [5-Methanesulfonyl-2-(2,2,2-trifluoro-1-methyl-ethoxy)-phenyl]-[1-(5-methyl-[1,3,4]oxadiazol-2-yl)-3-aza-bicyclo[3.1.0]hex-3-yl]-methanone]: 0.089 µM. For the compound `C[C@H](Oc1ccc(S(C)(=O)=O)cc1C(=O)N1CC2CC2(c2noc(C3(C(F)(F)F)CC3)n2)C1)C(F)(F)F` (single isomer, unassigned) [Example 67, [5-Methanesulfonyl-2-(2,2,2-trifluoro-1-methyl-ethoxy)-phenyl]-{1-[5-(1-trifluoromethyl-cyclopropyl)-[1,2,4]oxadiazol-3-yl]-3-aza-bicyclo[3.1.0]hex-3-yl}-methanone], half-maximal inhibition (IC50) required 0.1 µM. The same measure for `C[C@@H](Oc1ccc(S(C)(=O)=O)cc1C(=O)N1CC2CC2(c2nccc(C3CC3)n2)C1)C(F)(F)F` (mixture of isomers) [Example 79, [1-(4-Cyclopropyl-pyrimidin-2-yl)-3-aza-bicyclo[3.1.0]hex-3-yl]-[5-methanesulfonyl-2-(2,2,2-trifluoro-1-methyl-ethoxy)-phenyl]-methanone]: 0.006 µM. `C[C@H](Oc1ccc(C#N)cc1C(=O)N1CC2CC2(c2noc(C(F)(F)F)n2)C1)C(F)(F)F` (single isomer, unassigned) [Example 89, 4-(2,2,2-Trifluoro-1-methyl-ethoxy)-3-[1-(5-trifluoromethyl-[1,2,4]oxadiazol-3-yl)-3-aza-bicyclo[3.1.0]hexane-3-carbonyl]-benzonitrile] gave an IC50 of 0.097 µM. Next, `C[C@H](Oc1ccc(S(C)(=O)=O)cc1C(=O)N1CC2CC2(c2ncco2)C1)C(F)(F)F` (mixture of isomers) [Example 20, [5-Methanesulfonyl-2-(2,2,2-trifluoro-1-methyl-ethoxy)-phenyl]-(1-oxazol-2-yl-3-aza-bicyclo[3.1.0]hex-3-yl)-methanone]: 0.101 µM; `C[C@H](Oc1ccc(S(C)(=O)=O)cc1C(=O)N1CC2CC2(c2nccc(C(F)(F)F)n2)C1)C(F)(F)F` (mixture of isomers) [Example 15, [5-Methanesulfonyl-2-(2,2,2-trifluoro-1-methyl-ethoxy)-phenyl]-[1-(4-trifluoromethyl-pyrimidin-2-yl)-3-aza-bicyclo[3.1.0]hex-3-yl]-methanone]: 0.014 µM. The same measure for `C[C@H](Oc1ccc(S(C)(=O)=O)cc1C(=O)N1CC2CC2(c2nccc(C(F)(F)F)n2)C1)C(F)(F)F` (single isomer, unassigned) [Example 17, [5-Methanesulfonyl-2-(2,2,2-trifluoro-1-methyl-ethoxy)-phenyl]-[1-(4-trifluoromethyl-pyrimidin-2-yl)-3-aza-bicyclo[3.1.0]hex-3-yl]-methanone]: 0.157 µM.
